# According to paper PMC7438487, “Structural studies reveal flexible roof of active site responsible for ω-transaminase CrmG overcoming by-product inhibition” (Communications Biology, 2020):
# Molecular target: T1, CrmG (Actinoalloteichus sp. WH1-2216-6, UniProt H8Y6N2, W223A)
# T1 construct: pET28a, N-terminal His-tag and 14 additional vector residues; expressed in E. coli BL21; dimer (114 kDa by DLS)
# Experiment: UV-vis conversion of PLP to PMP
# Type: biochemical
# Conditions: 0.02 mM CrmG W223A, 0.2 mM PLP, 2 mM amino donor (L-Glu, L-Gln or L-Ala), 50 mM Tris pH 7.5, 30 °C
# T1 sequence (H8Y6N2 entry or part of it W223A): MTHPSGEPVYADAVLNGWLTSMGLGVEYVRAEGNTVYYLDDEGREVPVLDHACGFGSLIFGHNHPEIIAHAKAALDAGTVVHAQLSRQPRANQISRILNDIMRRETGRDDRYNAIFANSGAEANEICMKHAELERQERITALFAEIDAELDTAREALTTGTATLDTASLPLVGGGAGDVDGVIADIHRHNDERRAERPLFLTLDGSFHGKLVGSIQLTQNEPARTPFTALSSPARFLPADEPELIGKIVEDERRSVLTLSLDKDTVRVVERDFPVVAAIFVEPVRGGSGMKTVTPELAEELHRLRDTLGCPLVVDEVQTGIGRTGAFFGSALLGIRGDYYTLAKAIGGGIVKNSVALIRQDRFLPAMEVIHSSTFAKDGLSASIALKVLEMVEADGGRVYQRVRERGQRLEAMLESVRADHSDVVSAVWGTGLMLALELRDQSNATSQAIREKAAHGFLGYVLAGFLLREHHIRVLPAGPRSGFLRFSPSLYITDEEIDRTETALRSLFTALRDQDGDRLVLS
smiles,measurement,value
Cc1ncc(COP(=O)(O)O)c(C=O)c1O [PLP],UV-vis conversion of PLP to PMP,CrmG catalyzing PLP conversion to PMP is greatly improved by the mutation W223A
